Results reported in US4005217A, “Treatment of helminth infections with substituted phenyl-thiourea derivatives” (May & Baker Limited, priority 1970, dated 1977).
Converted amounts (≈) assume the structure as drawn. Counter-ions that a name gives are not always drawn. Like-named read-outs stand apart in the source and are kept apart here.

Key:
Trichostrongylus axei [1] = assay: Activity against 4th larval stages in lambs, oral treatment (Table II); format: in vivo; conditions: 100 mg/kg oral
Experimental: (§1) i. 9 Worm-free lambs were each infected with H.contortus (approximately 9,000), T. axei (approximately 7,000) and T. colubriformis (approximately 12,000) infective larvae. After 7 days, 4 lambs were treated orally with 100 mg/kg animal body weight of the 2 test compounds, i.e. 2 lambs per compound, against the 4th larval stages of the worms. 23 Days after infection, all 9 lambs were killed for post-mortem worm counts and the burdens of each worm species in the 4 treated animals compared with those in the remaining 5 untreated control animals.

Haemonchus contortus [2] = assay: as above; format: in vivo; conditions: 100 mg/kg oral
Experimental: as §1

[3] = tested on: Trichostrongylus colubriformis; assay: as above; format: in vivo; conditions: 100 mg/kg oral
Experimental: as §1

[4] = tested on: Nippostrongylus brasiliensis eggs; assay: In vitro activity against roundworms (egg hatching and larvae); format: cell-based; conditions: 96 h, tested at 100, 10, 1 and 0.1 μg/ml, inhibited or delayed hatching of eggs, or killed, retarded growth or reduced activity of larvae during 4 days, read-out: M.I.C. (minimum inhibitory concentration)
Experimental: Compounds of formula I were tested at concentrations of 100 μg/ml, 10 μg/ml, 1 μg/ml and 0.1 μg/ml in small glass containers. If the compound was not soluble in water, a volatile organic medium, e.g. acetone, chloroform, ethanol or methanol was used. An amount of material appropriate for each final concentration was measured and placed in duplicate test containers and if an organic solvent was used it was allowed to evaporate completely. Nippostrongylus brasiliensis eggs were recovered by saturated saline centrifugal flotation from the faeces of rats heavily infected with third stage larvae six days previously. They were washed several times in water and suspended in water in a suitable concentration. From 25-50 eggs were placed in each container and the final volume was made up by the addition of a very dilute aqueous suspension of mouse faeces which served as the growth medium. The minimum inhibitory concentrations of each compound (M.I.C.), shown in the following Table V was the minimum concentration in μg/ml total liquid volume at which it inhibited or delayed hatching of eggs, or at which it killed, retarded growth or reduced activity of larvae during the 4 days after beginning the test.

[5] = tested on: Nippostrongylus brasiliensis; assay: Test 1: activity against roundworms in rats, treatment 6 days after infection (patent infection), worm counts 48 hours after treatment; format: in vivo
Experimental: Test 1 - Rats were infected with 100 Nippostrongylus brasiliensis larvae each, by the subcutaneous route. After 6 days, when the infection was patent, the rats were randomised and alloted to groups of 10 animals each, ready for treatment. One group was used for each dose level of the test compound and, in each experiment, one group was left untreated as a control. All the rats were killed for post-mortem worm counts 48 hours after treatment. The activity, expressed in terms of the percentage reduction in mean worm load of the treated group compared with the untreated group, is shown in Table I.

[6] = tested on: Nippostrongylus brasiliensis; assay: Test 2: activity against roundworms in rats, treatment 24 hours after infection, worm counts 6 days after dosing; format: in vivo; conditions: rats
Experimental: Test 2 -- Rats were infected with 100 Nippostrongylus brasiliensis larvae each, by the subcutaneous route. After 24 hours the rats were randomised and allotted to groups of 5 animals each, ready for treatment. Doses of the test compound were then administered to each group by the oral, subcutaneous and intraperitoneal routes respectively, one group of 10 animals being left untreated as a control. All the rats were killed for post-mortem worm counts 6 days after dosing. The activities, expressed in terms of the percentage reductions in mean worm load of the treated groups or damage to the worms compared with the untreated control group, are given below in Table I.

Trichostrongylus axei [7] = assay: Activity against mature adult stages in lambs, oral treatment (Table III); format: in vivo; conditions: 120 h, 15 mg/kg oral, read-out: Mean percentage reduction in worm burdens, T.axei
Experimental: (§2) ii. 20 Worm-free lambs were each infected with H. contortus (approximately 5,600), T. axei (approximately 9,300) and T. colubriformis (approximately 10,000) infective larvae. After 22 days, 16 lambs were treated orally with 15 mg/kg animal body weight of the 8 test compounds, i.e. 2 lambs per compound, against the mature adult stages of the worms. 27 Days after infection, all 20 lambs were killed for post-mortem worm counts and the burden of each worm species in the 16 treated animals compared with those in the remaining 4 untreated control animals.

Haemonchus contortus [8] = assay: as above; format: in vivo; conditions: 120 h, 15 mg/kg oral, read-out: Mean percentage reduction in worm burdens, H.contortus
Experimental: as §2

[9] = tested on: Trichostrongylus colubriformis; assay: as above; format: in vivo; conditions: 120 h, 15 mg/kg oral, read-out: Mean percentage reduction in worm burdens, T.colubriformis
Experimental: as §2

Trichinella spiralis = assay: Activity against roundworms in mice; format: in vivo; conditions: 100 mg/kg subcutaneous at 2 hours and 24 hours post infection, killed 5 days after second dose
Experimental: Mice were infected with approximately 100 Trichinella spiralis larvae each, by the oral route. The mice were randomised and allotted to two groups of 4 animals each. Doses of 1-methoxycarbonyl-3-(2-dimethylaminoacetamidophenyl)thiourea hydrochloride were then administered to one group by the subcutaneous route at 2 hours post infection and again at 24 hours post infection, one group of 4 animals being left untreated as a control. The doses given to the mice were 100 mg/kg animal body weight. All the mice were killed for postmortem examination 5 days after the second dose. The activity, expressed in terms of the percentage reduction in mean worm load of the treated group compared with the control group, was 95%.

H. contortus = assay: Activity in lambs by subcutaneous injection against 4th larval and adult stages; format: in vivo; conditions: 75 mg/kg subcutaneous injection (18% w/v aqueous solution)
Experimental: (§3) b. 8 Worm-free lambs were each infected with H. contortus (approximately 7,000) and T. colubriformis ((approximately 15,000) infective larvae. After 7 days, 2 lambs were treated by subcutaneous injection of an 18% w/v aqueous solution at 75 mg/kg animal body weight of the test compound against the 4th larval stages of the worms. 28 Days after infection, 2 lambs were similarly treated against the adult stages of the worms. 35 Days after infection all 8 lambs were killed for post-mortem worm counts and the burdens of each worm species in the 4 treated animals compared with those in the remaining 4 untreated animals.

T. colubriformis = assay: as above; format: in vivo; conditions: 75 mg/kg subcutaneous injection (18% w/v aqueous solution)
Experimental: as §3

[10] = Nippostrongylus brasiliensis, 144 h, Test 2, 1000 mg/kg oral, read-out: Percentage reduction in N.brasiliensis load

CCCCc1ccc(NC(=S)NC(=O)OC)c(NC(C)=O)c1 [1-methoxycarbonyl-3-(2-acetamido-4-n-butylphenyl)thiourea]
Mean percentage reduction in worm burdens, T.axei (Trichostrongylus axei [1]): 99.5% | Mean percentage reduction in worm burdens, H.contortus (Haemonchus contortus [2]): 99.9% | Mean percentage reduction in worm burdens, T.colubriformis [3]: 100% | MIC [4]: 0.1 µg/mL (≈ 0.309 µM) | worm damage ([5]; Test 1, 500 mg/kg oral): worm damage | inhibition in vivo at 1000 mg/kg [6, 10]: 98% | worm damage ([6]; Test 2, 1000 mg/kg oral): worm damage | inhibition in vivo at 15 mg/kg (Trichostrongylus axei [7]): 66.9% | inhibition in vivo at 15 mg/kg (Haemonchus contortus [8]): 76.7% | inhibition in vivo at 15 mg/kg [9]: 6.7%

COC(=O)NC(=S)Nc1ccccc1NC(=O)CN(C)C [1-methoxycarbonyl-3-(2-dimethylaminoacetamidophenyl)thiourea hydrochloride]
MIC [4]: 1 µg/mL | inhibition in vivo at 1000 mg/kg ([5]; Nippostrongylus brasiliensis, po, 48 h, Test 1, 1000 mg/kg oral, read-out: Percentage reduction in N.brasiliensis load): 91% | inhibition in vivo at 1000 mg/kg [6, 10]: 100% | inhibition in vivo at 50 mg/kg ([6]; Nippostrongylus brasiliensis, ip, 144 h, Test 2, 50 mg/kg intraperitoneal, read-out: Percentage reduction in N.brasiliensis load): 89% | inhibition in vivo at 100 mg/kg ([6]; Nippostrongylus brasiliensis, ip, 144 h, Test 2, 100 mg/kg intraperitoneal, read-out: Percentage reduction in N.brasiliensis load): 99% | inhibition in vivo at 250 mg/kg ([6]; Nippostrongylus brasiliensis, ip, 144 h, Test 2, 250 mg/kg intraperitoneal, read-out: Percentage reduction in N.brasiliensis load): 96% | inhibition in vivo at 60 mg/kg ([6]; Nippostrongylus brasiliensis, sc, 144 h, Test 2, 60 mg/kg subcutaneous, read-out: Percentage reduction in N.brasiliensis load): 89.8% | inhibition in vivo at 250 mg/kg ([6]; Nippostrongylus brasiliensis, sc, 144 h, Test 2, 250 mg/kg subcutaneous, read-out: Percentage reduction in N.brasiliensis load): 99.5% | inhibition in vivo at 500 mg/kg ([6]; Nippostrongylus brasiliensis, sc, 144 h, Test 2, 500 mg/kg subcutaneous, read-out: Percentage reduction in N.brasiliensis load): 99.5% | inhibition in vivo at 15 mg/kg (Trichostrongylus axei [7]): 78% | inhibition in vivo at 15 mg/kg (Haemonchus contortus [8]): 60% | inhibition in vivo at 15 mg/kg [9]: 43.4% | percentage reduction in mean worm load (Trichinella spiralis): 95% | Mean percentage reduction in worm burdens, H.contortus (H. contortus; 4th larval stage): 87.1% | Mean percentage reduction in worm burdens, H.contortus (H. contortus; adult stage): 95.3% | Mean percentage reduction in worm burdens, T.colubriformis (T. colubriformis; 4th larval stage): 99.9% | Mean percentage reduction in worm burdens, T.colubriformis (T. colubriformis; adult stage): 99.7%
